Publication PMC3293837, “Biophysical Property and Broad Anti-HIV Activity of Albuvirtide, a 3-Maleimimidopropionic Acid-Modified Peptide Fusion Inhibitor” (PLoS ONE, 2012)
Read-outs that look alike come from different tables or passages of the source. Side chains are listed from the residue outwards. Peptide text beside a SMILES is read from it. * marks the point of attachment. Propanoyl(3-maleimido) = O=C1C=CC(=O)N1CCC(=O)*; AEEA = NCCOCCOCC(=O)O

Columns and labels:
[1] = rats, intravenous, ref [25], cited from earlier work
[2] = monkeys, intravenous, ref [25], cited from earlier work
[3] = system: HIV-1NL4-3 Env-pseudotyped virus; type: cell-based
Description: (§1) HIV-1 pseudoviruses were generated as described previously [32], [55]–[56]. Briefly, 293T cells (5×10^6 cells in 15 ml of growth medium in a T-75 culture flask) were cotransfected with 10 µg of an Env-expressing plasmid and 20 µg of a backbone plasmid pSG3deltaEnv that encodes Env-defective, luciferase-expressing HIV-1 genome using Lipofectamine 2000 reagent (Invitrogen). Pseudovirus-containing culture supernatants were harvested 48 hours after transfection and filtered by 0.45-mm pore size, and stored at −80°C in 1-ml aliquots until use. The 50% tissue culture infectious dose (TCID50) of a single thawed aliquot of each pseudovirus batch was determined in TZM-bl cells. […] Briefly, the peptides were prepared with ten series dilutions in a 3-fold stepwise manner and mixed with 100 TCID50 viruses and incubated 1 hour at room temperature. The mixture was added to TZM-bl cells (10^4/well) and incubation at 37°C for 48 hours. Luciferase activity was measured using luciferase assay regents (Promega, Medison, WI) and a Luminescence Counter (Promega) according to the manufacture's instructions.

[4] = system: HIV-1NL4-3 D36G pseudovirus; type: cell-based
Description: as §1

[5] = system: HIV-1NL4-3 I37T pseudovirus; type: cell-based
Description: as §1

[6] = system: HIV-1NL4-3 V38A pseudovirus; type: cell-based
Description: as §1

[7] = system: HIV-1NL4-3 V38M pseudovirus; type: cell-based
Description: as §1

[8] = system: HIV-1NL4-3 Q40H pseudovirus; type: cell-based
Description: (§2) The mutations were created using double-stranded DNA templates and selection of mutants with DpnI. For each mutation, the two primers contained the desired mutation and occupied the same starting and ending positions on opposite strands of the plasmid DNA. DNA synthesis was carried out by PCR in a 50-µL reaction volume using 1 µL of denatured plasmid template (1 ng/µL), 50 pmol of upper and lower primers and 5 U of high-fidelity thermostable polymerase PrimeStar (Takara, Dalian, China). PCR amplification was carried out for one cycle of denaturation at 98°C for 5 min, then 18 cycles of 98°C for 15 s and 68°C for 15 min, followed a final extension at 72°C for 10 min. The amplicons were treated with the restriction enzyme DpnI for 1 h at 37°C. DpnI-resistant molecules, which were rich in the desired mutants, were recovered by transforming Escherichia coli strain-DH5α to antibiotic resistance. The successful mutations were confirmed by sequencing.
as §1

[9] = system: HIV-1NL4-3 N43K pseudovirus; type: cell-based
Description: as §2, §1

[10] = system: HIV-1NL4-3 D36S/V38M pseudovirus; type: cell-based
Description: as §2, §1

[11] = system: HIV-1NL4-3 I37T/N43K pseudovirus; type: cell-based
Description: as §2, §1

[12] = system: HIV-1NL4-3 V38A/N42T pseudovirus; type: cell-based
Description: as §1

[13] = after conjugation with serum albumin
[14] = value from which half-life was extended by albumin conjugation

CC[C@H](C)[C@H](NC(=O)[C@H](CC(C)C)NC(=O)[C@H](CCC(=O)O)NC(=O)[C@H](Cc1c[nH]cn1)NC(=O)[C@@H](NC(=O)[C@H](CC(C)C)NC(=O)[C@H](CCCCNC(=O)COCCOCCNC(=O)CCN1C(=O)C=CC1=O)NC(=O)[C@@H](NC(=O)[C@H](Cc1ccc(O)cc1)NC(=O)[C@H](CC(N)=O)NC(=O)[C@H](CC(N)=O)NC(=O)[C@@H](NC(=O)[C@H](CCC(=O)O)NC(=O)[C@H](CCCNC(=N)N)NC(=O)[C@H](CC(=O)O)NC(=O)[C@H](Cc1c[nH]c2ccccc12)NC(=O)[C@H](CCC(=O)O)NC(=O)[C@H](CCC(=O)O)NC(=O)[C@H](Cc1c[nH]c2ccccc12)NC(C)=O)[C@@H](C)CC)[C@@H](C)O)[C@@H](C)CC)C(=O)N[C@@H](CCC(=O)O)C(=O)N[C@@H](CCC(=O)O)C(=O)N[C@@H](CO)C(=O)N[C@@H](CCC(N)=O)C(=O)N[C@@H](CC(N)=O)C(=O)N[C@@H](CCC(N)=O)C(=O)N[C@@H](CCC(N)=O)C(=O)N[C@@H](CCC(=O)O)C(=O)N[C@@H](CCCCN)C(=O)N[C@@H](CC(N)=O)C(=O)N[C@@H](CCC(=O)O)C(=O)N[C@@H](CCC(N)=O)C(=O)N[C@@H](CCC(=O)O)C(=O)N[C@@H](CC(C)C)C(=O)N[C@@H](CC(C)C)C(N)=O [ABT] (Ac-WEEWDREINNYTK([AEEA-Propanoyl(3-maleimido)])LIHELIEESQNQQEKNEQELL-NH2)
in vivo half-life (extended, 'to') [1, 13]: 25.8 h | in vivo half-life (before extension, 'from') [1, 14]: 1.67 h | in vivo half-life (extended, 'to') [2, 13]: 102.4 h | in vivo half-life (before extension, 'from') [2, 14]: 10.89 h

Cc1cn([C@H]2C[C@H](N=[N+]=[N-])[C@@H](CO)O2)c(=O)[nH]c1=O [AZT]
IC50 ([3]; HIV-1NL4-3 WT pseudovirus, Table 3, TZM-bl, 48 h, mean ± SD of three independent experiments, read-out: IC50): 0.107 ± 0.0232 µM | Fold change (in parentheses) ([3]; WT, reference D36G): 1.8 | Fold change ([3]; WT, reference wild-type): 1.0 | Fold change (in parentheses) ([4]; D36G, reference D36G): 1.0 | Fold change ([4]; D36G, reference wild-type): 0.6 | IC50 ([4]; HIV-1NL4-3 D36G, TZM-bl, 48 h, mean ± SD of three independent experiments): 0.0594 ± 0.0059 µM | IC50 ([5]; HIV-1NL4-3 I37T, TZM-bl, 48 h, mean ± SD of three independent experiments): 0.0935 ± 0.0135 µM | Fold change (in parentheses) ([5]; I37T, reference D36G): 1.6 | Fold change ([5]; I37T, reference wild-type): 0.9 | IC50 ([6]; HIV-1NL4-3 V38A, TZM-bl, 48 h, mean ± SD of three independent experiments): 0.0423 ± 0.009 µM | Fold change (in parentheses) ([6]; V38A, reference D36G): 0.7 | Fold change ([6]; V38A, reference wild-type): 0.4 | IC50 ([7]; HIV-1NL4-3 V38M, TZM-bl, 48 h, mean ± SD of three independent experiments): 0.0478 ± 0.0037 µM | Fold change (in parentheses) ([7]; V38M, reference D36G): 0.8 | Fold change ([7]; V38M, reference wild-type): 0.5 | IC50 ([8]; HIV-1NL4-3 Q40H, TZM-bl, 48 h, mean ± SD of three independent experiments): 0.0332 ± 0.0072 µM | Fold change (in parentheses) ([8]; Q40H, reference D36G): 0.6 | Fold change ([8]; Q40H, reference wild-type): 0.3 | IC50 ([9]; HIV-1NL4-3 N43K, TZM-bl, 48 h, mean ± SD of three independent experiments): 0.153 ± 0.0074 µM | Fold change (in parentheses) ([9]; N43K, reference D36G): 2.6 | Fold change ([9]; N43K, reference wild-type): 1.4 | Fold change (in parentheses) ([10]; D36S/V38M, reference D36G): 0.7 | Fold change ([10]; D36S/V38M, reference wild-type): 0.4 | IC50 ([10]; HIV-1NL4-3 D36S/V38M, TZM-bl, 48 h, mean ± SD of three independent experiments): 0.0403 ± 0.0086 µM | IC50 ([11]; HIV-1NL4-3 I37T/N43K, TZM-bl, 48 h, mean ± SD of three independent experiments): 0.139 ± 0.0149 µM | Fold change (in parentheses) ([11]; I37T/N43K, reference D36G): 2.3 | Fold change ([11]; I37T/N43K, reference wild-type): 1.3 | IC50 ([12]; HIV-1NL4-3 V38A/N42T, TZM-bl, 48 h, mean ± SD of three independent experiments): 0.0381 ± 0.0037 µM | Fold change (in parentheses) ([12]; V38A/N42T, reference D36G): 0.6 | Fold change ([12]; V38A/N42T, reference wild-type): 0.4
